System: D2/3 receptors
Test: Blocking studies using ex vivo storage phosphor imaging (haloperidol)
Type: in vivo
Details: 2 h p.i., rats
Experimental: To determine whether [^123I]-1 binds selectively to D2/3 receptors in vivo, in the following experiments 5 rats received an i.v. injection of the dopamine receptor blocker haloperidol (1 mg/kg) 5 min prior to the injection with [^123I]-1 (approximately 37 MBq). A control group (n = 5) was injected with 0.4 mL buffer 5 min prior to the injection with the radiopharmaceutical. Two hours after the injection of [^123I]-1 (this time point was based on the results of the classic biodistribution study; see Results) the rats were sacrificed by bleeding through heart puncture under O2/CO2 anaesthesia. The brains were quickly removed and immediately frozen on dry ice. Then the frozen brain was sliced horizontally in 50 μm thick slices. Storage phosphor imaging was done as previously described. In contrast to previous studies, we used a Typhoon FLA 7000 Phosphor imager (GE Healthcare Life Sciences, Uppsala, Sweden) and Hypercassette Amersham Biosciences imaging plates which were scanned at 25 μm pixel size. In this blocking experiment, storage phosphor imaging was used because this offers the opportunity to look into binding in ventral as well as dorsal parts of the striatum. In ventral parts, the expression of dopamine D3 receptors is higher than in more dorsal parts.

uptake in white matter: high uptake in white matter
SMILES: Oc1ccc2c(c1)O[C@@H](CNCc1ccc([123I])cc1)CC2 [[^123I]-1]
specific striatal binding (haloperidol 1 mg/kg i.v. 5 min prior vs control): no specific striatal binding was observed
specific binding in other brain areas including the globus pallidus: no specific binding

Source: publication PMC4291083, “Ex Vivo Characterization of a Novel Iodine-123-Labelled Aminomethylchroman as a Potential Agonist Ligand for SPECT Imaging of Dopamine D2/3 Receptors” (International Journal of Molecular Imaging, 2014)
